From article PMC8143347, “Metabolism and Interspecies Variation of IMMH-010, a Programmed Cell Death Ligand 1 Inhibitor Prodrug” (Pharmaceutics, 2021)
Entries after “also recorded” stand apart in the source; their conditions may differ. Blank lines part the entries; values can stand above or below the compound they belong to.

Tests used:
Format in all cases: in vitro ADME
CES1 = biological target: T1, CES1 (Homo sapiens, UniProt P23141); experiment: Chemical inhibition of IMMH-010 hydrolysis in HLM, selective CES1 inhibitor; set-up: tissue BD Gentest; host or cells: pooled mixed-gender human liver microsomes; conditions: 100 μM inhibitor, IMMH-010 10 µM, HLM 0.2 mg/mL, 15 min, vs no inhibitor group
T1 sequence (P23141 18-567): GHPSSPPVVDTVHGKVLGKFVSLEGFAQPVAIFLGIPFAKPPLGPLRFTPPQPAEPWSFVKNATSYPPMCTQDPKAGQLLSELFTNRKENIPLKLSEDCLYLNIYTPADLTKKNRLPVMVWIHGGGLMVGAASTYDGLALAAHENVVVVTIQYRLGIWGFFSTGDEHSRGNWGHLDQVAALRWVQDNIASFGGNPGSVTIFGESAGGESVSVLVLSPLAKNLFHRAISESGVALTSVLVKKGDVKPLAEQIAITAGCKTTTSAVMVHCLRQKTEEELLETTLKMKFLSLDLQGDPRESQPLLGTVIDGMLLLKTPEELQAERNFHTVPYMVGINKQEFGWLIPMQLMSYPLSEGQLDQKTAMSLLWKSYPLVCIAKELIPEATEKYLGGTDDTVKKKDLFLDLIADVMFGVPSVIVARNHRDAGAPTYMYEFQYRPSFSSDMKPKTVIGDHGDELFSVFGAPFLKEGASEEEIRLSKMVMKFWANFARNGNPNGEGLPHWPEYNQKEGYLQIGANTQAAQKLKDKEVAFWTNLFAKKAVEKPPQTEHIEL
Protocol: (§1) Selective chemical inhibitors and recombinant human enzymes were used to investigate the esterase responsible for IMMH-010 metabolism in HLM. The selective CES1 and CES2 inhibitors were digitonin (100 μM) and telmisartan (50 μM), respectively. IMMH-010 (10 µM) was incubated with HLM (0.2 mg/mL) at 37 °C for 0 and 15 min in the presence of chemical inhibitors. Control samples were incubated without inhibitors.

[1] = IMMH-010 stability in human plasma; conditions: 10 μM, after 1 h of incubation
Protocol: (§2) IMMH-010 hydrolysis was investigated in human, monkey, rat, and mouse plasma. […] IMMH-010 (10 μM) was incubated in rat or mouse plasma (0.2 mL) at 4 °C for 60 min. The experiments were performed in triplicate. The reactions were initiated by the addition of IMMH-010 (10 μM). After incubation, the reactions were stopped by adding 2 volumes of ice-cold acetonitrile. After vortexing and centrifuging, the concentrations of IMMH-010 and YPD-29B in the supernatant were determined by liquid chromatography with tandem mass spectrometry (LC-MS/MS). The compound olmesartan (10 μM), a substrate of paraoxonase 1, was set as the positive control.

[2] = IMMH-010 stability in monkey plasma; conditions: 10 μM, after 1 h of incubation
Protocol: as §2

[3] = IMMH-010 stability in rat plasma; conditions: 10 μM, after 1 h of incubation
Protocol: (§3) IMMH-010 hydrolysis was investigated in human, monkey, rat, and mouse plasma. IMMH-010 (1 μM) was incubated in human, monkey, or […] plasma (0.2 mL) at 37 °C for 120 min. IMMH-010 (10 μM) was incubated in rat or mouse plasma (0.2 mL) at 4 °C for 60 min. The experiments were performed in triplicate. The reactions were initiated by the addition of IMMH-010 (10 μM). After incubation, the reactions were stopped by adding 2 volumes of ice-cold acetonitrile. After vortexing and centrifuging, the concentrations of IMMH-010 and YPD-29B in the supernatant were determined by liquid chromatography with tandem mass spectrometry (LC-MS/MS). The compound olmesartan (10 μM), a substrate of paraoxonase 1, was set as the positive control.

[4] = IMMH-010 stability in mouse plasma; conditions: 10 μM, after 1 h of incubation
Protocol: as §3

CES2 = biological target: T2, CES2 (Homo sapiens, UniProt O00748); experiment: Chemical inhibition of IMMH-010 hydrolysis in HLM, selective CES2 inhibitor; set-up: tissue BD Gentest; host or cells: pooled mixed-gender human liver microsomes; conditions: 50 μM inhibitor, IMMH-010 10 µM, HLM 0.2 mg/mL, 15 min
T2 sequence (O00748 27-559): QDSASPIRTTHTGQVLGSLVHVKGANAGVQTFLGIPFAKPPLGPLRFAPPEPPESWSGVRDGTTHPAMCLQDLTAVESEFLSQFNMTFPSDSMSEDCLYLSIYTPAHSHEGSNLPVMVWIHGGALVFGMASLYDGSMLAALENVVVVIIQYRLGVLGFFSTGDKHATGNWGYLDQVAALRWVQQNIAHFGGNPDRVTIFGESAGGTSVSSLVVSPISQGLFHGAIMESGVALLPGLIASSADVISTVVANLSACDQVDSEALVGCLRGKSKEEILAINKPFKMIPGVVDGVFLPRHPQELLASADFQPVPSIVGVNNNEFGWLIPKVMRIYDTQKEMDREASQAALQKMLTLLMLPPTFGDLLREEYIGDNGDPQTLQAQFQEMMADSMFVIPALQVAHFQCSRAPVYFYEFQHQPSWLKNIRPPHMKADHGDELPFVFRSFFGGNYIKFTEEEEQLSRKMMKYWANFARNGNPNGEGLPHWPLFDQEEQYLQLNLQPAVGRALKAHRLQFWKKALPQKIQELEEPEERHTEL
Protocol: as §1

SMILES: C[C@@H]1CC[C@@]2(OC1)O[C@H]1[C@@H](O)[C@H]3[C@@H]4CC[C@H]5C[C@@H](O[C@@H]6O[C@H](CO)[C@H](O[C@@H]7O[C@H](CO)[C@@H](O)[C@H](O[C@@H]8OC[C@@H](O)[C@H](O)[C@H]8O)[C@H]7O[C@@H]7O[C@H](CO)[C@H](O)[C@H](O[C@@H]8O[C@H](CO)[C@@H](O)[C@H](O)[C@H]8O)[C@H]7O)[C@H](O)[C@H]6O)[C@H](O)C[C@]5(C)[C@H]4CC[C@]3(C)[C@H]1[C@@H]2C [digitonin]
inhibition of the formation of YPD-29B (CES1): 35.8%

decrease of control compound in plasma [1]: more than 80%
decrease of control compound in plasma [2]: more than 80%
decrease of control compound in plasma [3]: more than 80%
decrease of control compound in plasma [4]: more than 80%
SMILES: CCCc1nc(C(C)(C)O)c(C(=O)O)n1Cc1ccc(-c2ccccc2-c2nnn[nH]2)cc1 [olmesartan, reference compound]

SMILES: CCCc1nc2c(C)cc(-c3nc4ccccc4n3C)cc2n1Cc1ccc(-c2ccccc2C(=O)O)cc1 [telmisartan]
inhibition of the formation of YPD-29B (CES2): did not inhibit; also recorded: no inhibition
